{"source": "ChEMBL document CHEMBL1641381", "about": "“Rapid access to new bioconjugates of betulonic acid via click chemistry” (2011)", "assay_type_in_all_cases": "functional", "key": {"Mus musculus [1]": {"tested_on": "Mus musculus", "assay": "Antiinflammatory activity against histamine-induced mouse edema model assessed as inflammation index 20 mg/kg, po (untreated control = 32.6+/-3.1%)"}, "Mus musculus [2]": {"tested_on": "Mus musculus", "assay": "Antiinflammatory activity against histamine-induced mouse edema model assessed as edema size 20 mg/kg, po (untreated control = 100%)"}, "Mus musculus [3]": {"tested_on": "Mus musculus", "assay": "Antiinflammatory activity against histamine-induced mouse edema model assessed as antiinflammatory effect 20 mg/kg, po (untreated control = 0%)"}, "Mus musculus [4]": {"tested_on": "Mus musculus", "assay": "Antiinflammatory activity against histamine-induced mouse edema model assessed as inflammation index 50 mg/kg, po (untreated control = 32.6+/-3.1%)"}, "Mus musculus [5]": {"tested_on": "Mus musculus", "assay": "Antiinflammatory activity against histamine-induced mouse edema model assessed as edema size 50 mg/kg, po (untreated control = 100%)"}, "Mus musculus [6]": {"tested_on": "Mus musculus", "assay": "Antiinflammatory activity against histamine-induced mouse edema model assessed as antiinflammatory effect 50 mg/kg, po (untreated control = 0%)"}, "Mus musculus [7]": {"tested_on": "Mus musculus", "assay": "Antioxidant activity agains CCl4-induced hepatitis mouse model assessed as TBARS level in serum at 20 mg/kg, po (untreated control = 100%)"}, "Mus musculus [8]": {"tested_on": "Mus musculus", "assay": "Antioxidant activity agains CCl4-induced hepatitis mouse model at 20 mg/kg, po (untreated control = 0%)"}}, "data": [{"smiles": "C=C(C)[C@@H]1CC[C@]2(C(=O)Nc3ccc(-c4cn(CCCCCC)nn4)cc3)CC[C@]3(C)[C@H](CC[C@@H]4[C@@]5(C)CCC(=O)C(C)(C)[C@@H]5CC[C@]43C)[C@@H]12", "values": [{"measurement": "Activity", "setting": "Mus musculus [1]", "value": 29, "unit": "%"}, {"measurement": "level, % of control at 20 mg/kg", "setting": "Mus musculus [2]", "value": 89, "unit": "%"}, {"measurement": "Activity", "setting": "Mus musculus [3]", "value": 11, "unit": "%"}, {"measurement": "Activity", "setting": "Mus musculus [4]", "value": 28.4, "unit": "%"}, {"measurement": "level, % of control at 50 mg/kg", "setting": "Mus musculus [5]", "value": 87.1, "unit": "%"}, {"measurement": "Activity", "setting": "Mus musculus [6]", "value": 13, "unit": "%"}, {"measurement": "Activity", "setting": "Mus musculus [7]", "value": 66, "unit": "%"}, {"measurement": "Activity", "setting": "Mus musculus [8]", "value": 34, "unit": "%"}]}, {"smiles": "C=C(C)[C@@H]1CC[C@]2(C(=O)Nc3ccc(-c4cn(Cc5ccccc5)nn4)cc3)CC[C@]3(C)[C@H](CC[C@@H]4[C@@]5(C)CCC(=O)C(C)(C)[C@@H]5CC[C@]43C)[C@@H]12", "values": [{"measurement": "Activity", "setting": "Mus musculus [1]", "value": 34.1, "unit": "%"}, {"measurement": "level, % of control at 20 mg/kg", "setting": "Mus musculus [2]", "value": 105, "unit": "%"}, {"measurement": "Activity", "setting": "Mus musculus [3]", "value": 0, "unit": "%"}, {"measurement": "Activity", "setting": "Mus musculus [4]", "value": 25.6, "unit": "%"}, {"measurement": "level, % of control at 50 mg/kg", "setting": "Mus musculus [5]", "value": 78.5, "unit": "%"}, {"measurement": "Activity", "setting": "Mus musculus [6]", "value": 21, "unit": "%"}, {"measurement": "Activity", "setting": "Mus musculus [7]", "value": 58, "unit": "%"}, {"measurement": "Activity", "setting": "Mus musculus [8]", "value": 42, "unit": "%"}]}, {"smiles": "C=C(C)[C@@H]1CC[C@]2(C(=O)Nc3ccc(-c4cn(-c5ccc(OC)cc5)nn4)cc3)CC[C@]3(C)[C@H](CC[C@@H]4[C@@]5(C)CCC(=O)C(C)(C)[C@@H]5CC[C@]43C)[C@@H]12", "values": [{"measurement": "Activity", "setting": "Mus musculus [1]", "value": 25.6, "unit": "%"}, {"measurement": "level, % of control at 20 mg/kg", "setting": "Mus musculus [2]", "value": 78.5, "unit": "%"}, {"measurement": "Activity", "setting": "Mus musculus [3]", "value": 21, "unit": "%"}, {"measurement": "Activity", "setting": "Mus musculus [4]", "value": 25.4, "unit": "%"}, {"measurement": "level, % of control at 50 mg/kg", "setting": "Mus musculus [5]", "value": 77.9, "unit": "%"}, {"measurement": "Activity", "setting": "Mus musculus [6]", "value": 22, "unit": "%"}, {"measurement": "Activity", "setting": "Mus musculus [7]", "value": 41, "unit": "%"}, {"measurement": "Activity", "setting": "Mus musculus [8]", "value": 59, "unit": "%"}]}, {"smiles": "C=C(C)[C@@H]1CC[C@]2(C(=O)Nc3ccc(-c4cn(-c5ccc(C(C)=O)cc5)nn4)cc3)CC[C@]3(C)[C@H](CC[C@@H]4[C@@]5(C)CCC(=O)C(C)(C)[C@@H]5CC[C@]43C)[C@@H]12", "values": [{"measurement": "Activity", "setting": "Mus musculus [1]", "value": 35.4, "unit": "%"}, {"measurement": "level, % of control at 20 mg/kg", "setting": "Mus musculus [2]", "value": 109, "unit": "%"}, {"measurement": "Activity", "setting": "Mus musculus [3]", "value": 0, "unit": "%"}, {"measurement": "Activity", "setting": "Mus musculus [4]", "value": 24.2, "unit": "%"}, {"measurement": "level, % of control at 50 mg/kg", "setting": "Mus musculus [5]", "value": 74.2, "unit": "%"}, {"measurement": "Activity", "setting": "Mus musculus [6]", "value": 26, "unit": "%"}, {"measurement": "Activity", "setting": "Mus musculus [7]", "value": 40, "unit": "%"}, {"measurement": "Activity", "setting": "Mus musculus [8]", "value": 60, "unit": "%"}]}, {"smiles": "COc1ccc2c(c1)c(CC(=O)O)c(C)n2C(=O)c1ccc(Cl)cc1", "note": "[INDOMETHACIN]", "values": [{"measurement": "Activity", "setting": "Mus musculus [1]", "value": 12.2, "unit": "%"}, {"measurement": "level, % of control at 20 mg/kg", "setting": "Mus musculus [2]", "value": 37.4, "unit": "%"}, {"measurement": "Activity", "setting": "Mus musculus [3]", "value": 63, "unit": "%"}]}, {"smiles": "O=C1c2c(O)cc(O)cc2O[C@H](c2ccc(O)c(O)c2)[C@H]1O", "note": "[(+)-TAXIFOLIN]", "values": [{"measurement": "Activity", "setting": "Mus musculus [7]", "value": 57, "unit": "%"}, {"measurement": "Activity", "setting": "Mus musculus [8]", "value": 43, "unit": "%"}]}]}
